{"source": "patent US20150291565A1", "about": "“INDOLE COMPOUNDS AND THEIR USE AS ANTIMICROBIALS” (Memorial Sloan-Kettering Cancer Center, priority 2012, published 2015)", "key": {"[1]": {"tested_on": "M. smegmatis (mc2155) Beta-Galactosidase (B-gal) reporter gene", "assay": "HTS screen with Beta-Galactosidase reporter gene in M. smegmatis", "assay_type": "cell-based", "details": "Mycolicibacterium smegmatis"}, "MRSA": {"tested_on": "MRSA", "assay": "MIC against MRSA", "assay_type": "cell-based", "details": "Staphylococcus aureus"}, "[2]": {"tested_on": "S. pneumoniae ATCC 6301 (PSSP)", "assay": "Broth dilution MIC, S. pneumoniae ATCC 6301", "assay_type": "cell-based", "details": "Streptococcus pneumoniae"}, "[3]": {"tested_on": "S. pneumoniae ATCC 700674 (PRSP)", "assay": "Broth dilution MIC, S. pneumoniae ATCC 700674", "assay_type": "cell-based", "details": "Streptococcus pneumoniae"}, "K. pneumoniae ATCC 51503": {"tested_on": "K. pneumoniae ATCC 51503", "assay": "Broth dilution MIC, K. pneumoniae ATCC 51503", "assay_type": "cell-based", "details": "Klebsiella pneumoniae"}, "[4]": {"tested_on": "S. aureus (MRSA) (ATCC33591)", "assay": "Septicemia survival model in neutropenic CD1 mice, MRSA", "assay_type": "in vivo"}, "E. coli (ATCC 25922)": {"tested_on": "E. coli (ATCC 25922)", "assay": "Septicemia survival model in neutropenic CD1 mice, E. coli", "assay_type": "in vivo"}, "[5]": {"tested_on": "S. pneumoniae (ATCC 6303)", "assay": "Thigh infection model in neutropenic CD1 mice, S. pneumoniae", "details": "24 hours; for Log reduction: vs vehicle"}}, "note": "Where “and” joins values, the source holds several entries; their conditions need not be identical. Equal values may be shown once. Read-outs that look alike come from different tables or passages of the source.", "data": [{"compound": "c1cc(C2=NCCN2)ccc1Nc1ccc(-c2cc3ccc(C4=NCCN4)cc3[nH]2)cc1", "note": "[SKI-1]", "values": [{"measurement": "IC50", "setting": "[1]; suffix 250 not explained, read-out: IC50_250", "value": 0.79, "unit": "µM"}, {"measurement": "IC50", "setting": "[1]; suffix 251 not explained, read-out: IC50_251", "value": 0.73, "unit": "µM"}, {"measurement": "IC50", "setting": "[1]; suffix 381 not explained, read-out: IC50_381", "value": 2.54, "unit": "µM"}, {"measurement": "IC50", "setting": "[1]; suffix 569 not explained, read-out: IC50_569", "value": 3.67, "unit": "µM"}, {"measurement": "MIC", "setting": "MRSA", "value": 9.2, "unit": "µM"}, {"measurement": "MIC", "setting": "[2]; ATCC6301, Table 1, range 64 down to 0.12 μg/ml, read-out: MIC S. pneumoniae ATCC 6301", "value": "≤ 0.12", "unit": "µg/mL"}, {"measurement": "MIC", "setting": "[2]; ATCC6301, Table 2, broth dilution MIC in ug/ml, read-out: MIC S pneumonia ATCC 6301 PSSP", "value": 0.12, "unit": "µg/mL"}, {"measurement": "MIC", "setting": "[2]; ATCC6301, Table 3, starting at 4 μg/ml, read-out: MIC S. pneumoniae ATCC 6301", "value": 0.12, "unit": "µg/mL"}, {"measurement": "MIC", "setting": "[2]; ATCC6301, Table 4, broth dilution MIC according to CLSI standards (NAEJA), read-out: MIC PSSP S. pneumoniae ATCC 6301", "value": 0.12, "unit": "µg/mL"}, {"measurement": "MIC", "setting": "[3]; Table 1, range 64 down to 0.12 μg/ml, read-out: MIC S. pneumoniae ATCC 700674", "value": "≤ 0.12", "unit": "µg/mL"}, {"measurement": "MIC", "setting": "[3]; Table 2, broth dilution MIC in ug/ml, read-out: MIC S pneumonia ATCC 700674 PRSP", "value": 0.12, "unit": "µg/mL"}, {"measurement": "MIC", "setting": "[3]; Table 3, starting at 4 μg/ml, read-out: MIC S. pneumoniae ATCC 700674", "value": 0.12, "unit": "µg/mL"}, {"measurement": "MIC", "setting": "[3]; Table 4, broth dilution MIC according to CLSI standards (NAEJA), read-out: MIC PRSP S. pneumoniae ATCC 700674", "value": 0.03, "unit": "µg/mL"}, {"measurement": "MIC", "setting": "K. pneumoniae ATCC 51503; ATCC51503, Table 1, range 64 down to 0.12 μg/ml, read-out: MIC K. pneumoniae ATCC 51503", "value": 2, "unit": "µg/mL"}, {"measurement": "MIC", "setting": "K. pneumoniae ATCC 51503; ATCC51503, Table 2, broth dilution MIC in ug/ml, read-out: MIC K pneumonia ATCC 51503", "value": 2, "unit": "µg/mL"}, {"measurement": "MIC", "setting": "K. pneumoniae ATCC 51503; ATCC51503, Table 4, broth dilution MIC according to CLSI standards (NAEJA), read-out: MIC K. pneumoniae ATCC 51503", "value": 1, "unit": "µg/mL"}, {"measurement": "Day by which all the mice died", "setting": "[4]; 10 mg/kg", "value": "≤ 3", "unit": "days"}, {"measurement": "Percent Survival Day 1", "setting": "[4]; 10 mg/kg BID IP", "value": 100, "unit": "%"}, {"measurement": "Percent Survival Day 2", "setting": "[4]; 10 mg/kg BID IP", "value": 100, "unit": "%"}, {"measurement": "Percent Survival Day 3", "setting": "[4]; 10 mg/kg BID IP", "value": 0, "unit": "%"}, {"measurement": "Percent Survival Day 4", "setting": "[4]; 10 mg/kg BID IP", "value": 0, "unit": "%"}, {"measurement": "Percent Survival Day 5", "setting": "[4]; 10 mg/kg BID IP", "value": 0, "unit": "%"}, {"measurement": "Percent Survival Day 6", "setting": "[4]; 10 mg/kg BID IP", "value": 0, "unit": "%"}, {"measurement": "Percent Survival Day 7", "setting": "[4]; 10 mg/kg BID IP", "value": 0, "unit": "%"}, {"measurement": "Day by which all the mice died", "setting": "[4]; 20 mg/kg", "value": "≤ 4", "unit": "days"}, {"measurement": "Percent Survival Day 1", "setting": "[4]; 20 mg/kg BID IP", "value": 100, "unit": "%"}, {"measurement": "Percent Survival Day 2", "setting": "[4]; 20 mg/kg BID IP", "value": 100, "unit": "%"}, {"measurement": "Percent Survival Day 3", "setting": "[4]; 20 mg/kg BID IP", "value": 80, "unit": "%"}, {"measurement": "Percent Survival Day 4", "setting": "[4]; 20 mg/kg BID IP", "value": 0, "unit": "%"}, {"measurement": "Percent Survival Day 5", "setting": "[4]; 20 mg/kg BID IP", "value": 0, "unit": "%"}, {"measurement": "Percent Survival Day 6", "setting": "[4]; 20 mg/kg BID IP", "value": 0, "unit": "%"}, {"measurement": "Percent Survival Day 7", "setting": "[4]; 20 mg/kg BID IP", "value": 0, "unit": "%"}, {"measurement": "Day by which all the mice died", "setting": "E. coli (ATCC 25922); 10 mg/kg", "value": "≤ 3", "unit": "days"}, {"measurement": "Percent Survival Day 1", "setting": "E. coli (ATCC 25922); 10 mg/kg BID IP", "value": 100, "unit": "%"}, {"measurement": "Percent Survival Day 2", "setting": "E. coli (ATCC 25922); 10 mg/kg BID IP", "value": 60, "unit": "%"}, {"measurement": "Percent Survival Day 3", "setting": "E. coli (ATCC 25922); 10 mg/kg BID IP", "value": 0, "unit": "%"}, {"measurement": "Percent Survival Day 4", "setting": "E. coli (ATCC 25922); 10 mg/kg BID IP", "value": 0, "unit": "%"}, {"measurement": "Percent Survival Day 5", "setting": "E. coli (ATCC 25922); 10 mg/kg BID IP", "value": 0, "unit": "%"}, {"measurement": "Percent Survival Day 6", "setting": "E. coli (ATCC 25922); 10 mg/kg BID IP", "value": 0, "unit": "%"}, {"measurement": "Percent Survival Day 7", "setting": "E. coli (ATCC 25922); 10 mg/kg BID IP", "value": 0, "unit": "%"}, {"measurement": "Day by which all the mice died", "setting": "E. coli (ATCC 25922); 20 mg/kg", "value": "≤ 4", "unit": "days"}, {"measurement": "Percent Survival Day 1", "setting": "E. coli (ATCC 25922); 20 mg/kg BID IP", "value": 100, "unit": "%"}, {"measurement": "Percent Survival Day 2", "setting": "E. coli (ATCC 25922); 20 mg/kg BID IP", "value": 80, "unit": "%"}, {"measurement": "Percent Survival Day 3", "setting": "E. coli (ATCC 25922); 20 mg/kg BID IP", "value": 60, "unit": "%"}, {"measurement": "Percent Survival Day 4", "setting": "E. coli (ATCC 25922); 20 mg/kg BID IP", "value": 0, "unit": "%"}, {"measurement": "Percent Survival Day 5", "setting": "E. coli (ATCC 25922); 20 mg/kg BID IP", "value": 0, "unit": "%"}, {"measurement": "Percent Survival Day 6", "setting": "E. coli (ATCC 25922); 20 mg/kg BID IP", "value": 0, "unit": "%"}, {"measurement": "Percent Survival Day 7", "setting": "E. coli (ATCC 25922); 20 mg/kg BID IP", "value": 0, "unit": "%"}, {"measurement": "Mean bacterial tissue burden (log10/thigh)", "setting": "[5]; 10 mg/kg BID IP", "value": 6.7143, "unit": "log10/thigh"}, {"measurement": "Log reduction", "setting": "[5]; 10 mg/kg BID IP, listed as 356313, 10 mg/kg", "value": "2.40 Log and 2.3984 Log"}, {"measurement": "Mean bacterial tissue burden (log10/thigh)", "setting": "[5]; 20 mg/kg BID IP", "value": 5.6260, "unit": "log10/thigh"}, {"measurement": "Log reduction", "setting": "[5]; 20 mg/kg BID IP, listed as 356313, 20 mg/kg", "value": "3.49 Log and 3.4867 Log"}]}]}
